Laboratory results taken from article PMC9354565 (The journal of physical chemistry. B, 2022).
Several values for one entry are separate records, joined by “and”; a condition that tells them apart may be missing. Identical values can stand only once. Like-named read-outs stand apart in the source and are kept apart here.

Key:
[1] = pH measurement of probes in the HTRF assay buffer; assay type: physicochemical; settings: for pH value of probe in the buffer: 30 mM probe; for pH value of the buffer with BZA: Figure 6C
[2] = reported data, no reference given; cited from earlier work
[3] = solubility observed in the HTRF screening; assay type: physicochemical; settings: at 10 mM in the HTRF assay
ST2 (Homo sapiens) = ST2 (Homo sapiens) (UniProt Q01638); assay: BLI; settings: cited from earlier work
[4] = biological target: T1, recombinant human ST2-Fc-Histag (human, UniProt Q01638 19-328); assay: AlphaScreen or HTRF
T1 sequence (looked up): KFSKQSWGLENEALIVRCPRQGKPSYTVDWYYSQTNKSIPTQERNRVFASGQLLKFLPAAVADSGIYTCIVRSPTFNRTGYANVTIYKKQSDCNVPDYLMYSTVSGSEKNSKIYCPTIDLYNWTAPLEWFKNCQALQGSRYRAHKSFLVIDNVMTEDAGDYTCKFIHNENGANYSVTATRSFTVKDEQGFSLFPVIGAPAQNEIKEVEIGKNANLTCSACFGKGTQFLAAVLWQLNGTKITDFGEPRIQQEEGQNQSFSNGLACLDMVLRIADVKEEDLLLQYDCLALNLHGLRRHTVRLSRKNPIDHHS

[5] = biological target: T1, recombinant human ST2-Fc-Histag; assay: AlphaScreen or HTRF; remark: listed apart in the source

For NCc1cccnc1 [AMP, 3-(aminomethyl)pyridine], the “pH value of probe in the buffer” value [1] is given as 9.4 and the pKa [2] is given as 8.34.

In the case of N=C(N)c1ccccc1 [BZA, benzamidine], the “pH value of the buffer with BZA” value ([1]; 0.12 mM BZA) is reported as 7.5, the “pH value of the buffer with BZA” value ([1]; 3.3 mM BZA) is reported as 10.1 and the “pH value of the buffer with BZA” value ([1]; 30 mM BZA) is reported as 10.8. The “pH value of probe in the buffer” value [1] was 10.5.

For O=C(O)c1ccc2ccccc2c1O [Compound 1], the solubility [3] was “poor solubility”.

For O=C(O)c1cccnc1 [NA, nicotinic acid], the “pH value of probe in the buffer” value [1] was 5.1.

For NC(=O)c1cccnc1 [NAM, nicotinamide], the “pH value of probe in the buffer” value [1] was 7.2.

For O=C(O)c1ccccc1O [SA, salicylic acid], the “pH value of probe in the buffer” value [1] was 4.1.

In the case of IL33 (from UniProt O95760), the Kd (ST2 (Homo sapiens)) is given as 2.23 nM.

B1: recombinant human IL33, un-biotinylated (ligand)
chain: SITGISPITEYLASLSTYNDQSITFALEDESYEIYVEDLKKDEKKDKVLLSYYESQHPSNESGDGVDGKMLMVTLSPTKDFWLHANNKEHSVELHKCEKPLPDQAFFVLHNMHSNCVSFECKTDPGVFIGVKDNHLALIKVDSSENLCTENILFKLSET
For B1, the IC50 [4] was 2.25 ± 0.98 nM, the “IC50 of one of two independent measurements” value [4] was 2.94 nM and 1.5 nM and the IC50 [5] was 3.7 ± 0.29 nM. The “IC50 of one of two independent measurements” value [5] was 3.49 nM and 3.9 nM.
